Experiment [1] has as its system angiotensin I converting enzyme. The experiment is described as follows: inhibition of pressor response following angiotensin I challenge in the dog. The class given is in vivo. Conditions: oral dose of 10 mg/Kg.
Experiment [2] deals with spontaneous hypertensive rat. The experiment is described as follows: blood pressure and heart rate in the spontaneous hypertensive rat. The class given is in vivo. Here is the method: The in vivo lowering effect on the blood pressure is recorded either directly by means of a catheter, for example placed in the dog's femoral artery, or indirectly by sphygmomanometry at the rat's tail, and a transducer, expressing the blood pressure prior and after dosing in mm Hg. Thus, for example, representative members of the compounds of this invention, illustrated by the Examples herein, are very effective in hypertensive rats and dogs at p.o.-doses as low or lower than 50 mg/kg/day.

The test system of experiment [3] is angiotensin I converting enzyme. The experiment is described as follows: inhibition of pressor response following angiotensin I challenge in normotensive rats. The class given is in vivo. Conditions: rat.
Procedure: The inhibition of said enzyme prevents the generation of angiotensin II from I and, therefore, attenuates any pressure response following an angiotensin I challenge.
The corresponding in vivo test is performed with male, normotensive rats, which are anesthetized with 100-120 mg/kg i.p. of sodium ethyl-(1-methylpropyl)malonylthiourea. A femoral artery and saphenous vein are cannulated for direct blood pressure measurement and i.v. administration of angiotensin I and compounds of this invention. After the basal blood pressure is stabilized, pressor responses to 3 challenges of 0.33 μg/kg of angiotensin I i.v., in 5 minute intervals, are obtained. Such pressure responses are again obtained 5, 10, 15, 30 and 60 minutes after either i.v., or p.o. administration (stomach tube) of the compounds to be tested, and compared with the initial responses.
Experiment [4] deals with T1, angiotensin-converting enzyme (Oryctolagus cuniculus, UniProt P12822).
T1 construct: freshly prepared from lungs of adult male rabbits; from tissue; host or cells: lungs of adult male rabbits
T1 sequence (P12822 34-1310): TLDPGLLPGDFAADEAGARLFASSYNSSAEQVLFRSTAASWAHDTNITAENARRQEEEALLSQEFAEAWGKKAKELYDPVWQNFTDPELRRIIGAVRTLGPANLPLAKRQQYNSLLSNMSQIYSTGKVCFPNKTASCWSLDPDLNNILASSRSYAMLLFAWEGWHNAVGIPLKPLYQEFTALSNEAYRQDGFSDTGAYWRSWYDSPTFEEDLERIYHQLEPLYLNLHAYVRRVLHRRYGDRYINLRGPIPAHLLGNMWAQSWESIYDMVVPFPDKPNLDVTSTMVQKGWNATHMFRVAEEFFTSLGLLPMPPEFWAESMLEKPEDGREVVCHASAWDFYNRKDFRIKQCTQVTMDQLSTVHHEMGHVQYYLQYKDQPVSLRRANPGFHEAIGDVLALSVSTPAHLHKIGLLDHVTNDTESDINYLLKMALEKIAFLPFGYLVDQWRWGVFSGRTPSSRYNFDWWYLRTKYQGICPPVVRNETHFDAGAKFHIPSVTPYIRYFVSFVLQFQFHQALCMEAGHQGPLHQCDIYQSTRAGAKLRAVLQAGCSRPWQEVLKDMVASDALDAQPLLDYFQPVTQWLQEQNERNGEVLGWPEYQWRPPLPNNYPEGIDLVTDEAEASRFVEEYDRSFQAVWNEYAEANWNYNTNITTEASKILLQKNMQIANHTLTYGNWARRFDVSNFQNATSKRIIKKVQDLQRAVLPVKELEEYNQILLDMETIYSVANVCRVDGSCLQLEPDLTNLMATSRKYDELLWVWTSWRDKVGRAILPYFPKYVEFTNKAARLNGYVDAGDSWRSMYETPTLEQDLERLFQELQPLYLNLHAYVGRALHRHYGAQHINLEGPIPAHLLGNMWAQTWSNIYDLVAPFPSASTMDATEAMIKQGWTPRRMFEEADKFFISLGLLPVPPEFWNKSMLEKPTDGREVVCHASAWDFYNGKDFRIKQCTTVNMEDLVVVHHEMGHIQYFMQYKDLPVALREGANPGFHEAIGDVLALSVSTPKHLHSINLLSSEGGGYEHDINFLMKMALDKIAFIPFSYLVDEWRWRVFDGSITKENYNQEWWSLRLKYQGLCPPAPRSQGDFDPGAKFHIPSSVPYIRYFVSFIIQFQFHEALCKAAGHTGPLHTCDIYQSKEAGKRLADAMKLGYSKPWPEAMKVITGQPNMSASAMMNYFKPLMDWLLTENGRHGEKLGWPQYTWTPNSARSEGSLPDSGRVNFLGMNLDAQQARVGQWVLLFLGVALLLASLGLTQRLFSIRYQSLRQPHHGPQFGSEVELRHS
The experiment is described as follows: in vitro inhibition of the angiotensin-converting enzyme. The class given is biochemical, rabbit. Conditions: hippuryl-histidyl-leucine substrate, 37°, 30 minutes; enzyme from lungs of adult male rabbits. The method, then: Biophys. Acta 293, 451 (1973). According to this method said compounds are dissolved at about 1 mM concentrations in phosphate buffer, externally cooled with ice. […] Said solutions are incubated at 37° for 30 minutes and combined with 0.75 ml of 0.6 N aqueous sodium hydroxide to stop further reaction. Then 100 μl of o-phthalaldehyde are added at room temperature, and 10 minutes later 100 μl of 6N hydrochloric acid. These samples are read against water in a spectrophotometer set at 360 nm, and the optical densities thereof estimated. They are corrected for the standard curve via a conversion factor expressing nanomoles of histidyl-leucine formed during said 30 minute incubation period. The results are plotted against drug concentration to determine the IC50, i.e., the drug concentration which gives half the activity of the control sample containing no drug.

pIC50: −log10 of the molar value.

As for `C[C@H](C[C@@H](C)C(=O)N1c2ccccc2C[C@H]1C(=O)O)C(=O)OCC(=O)OC1CC2CCC1(C)C2(C)C` (stereo partly drawn) [1-4-(l-bornyloxycarbonylmethoxycarbonyl)-2R,4R-dimethylbutanoyl-indoline-2S-carboxylic acid], the “inhibition of the pressor response following angiotensin I challenge” value (from here on “inhibition”) in experiment [1] is given as “inhibit the pressor response”.

`CCOC(=O)[C@H](C)C[C@@H](C)C(=O)N1c2ccccc2C[C@H]1C(=O)O` [1-(4-carboethoxy-2R,4R-dimethylbutanoyl)-indoline-2S-carboxylic acid]: in experiment [2] (30 mg/Kg p.o.), the “decrease of heart rate” value is listed as “decrease heart rate” and the “lowering of blood pressure” value is reported as “significantly lower blood pressure”. In addition, the “inhibition” value in experiment [3] (dose as low as 0.3 mg/Kg i.v.) is “about 50%”. In addition, the “inhibition” value in experiment [3] (dose as low as 4 mg/Kg p.o.) is on record as “about 50%”.

For the compound `CCOC(=O)[C@H](CCc1ccccc1)C[C@@H](C)C(=O)N1c2ccccc2C[C@H]1C(=O)O` [1-(4-carboethoxy-2R-methyl-4R-phenethylbutanoyl)indoline-2S-carboxylic acid], in experiment [2] (10 mg/Kg p.o.), the “decrease of heart rate” value is reported as “decrease heart rate” and the “lowering of blood pressure” value is reported as “significantly lower blood pressure”.

In general, pIC50 refers to −log10 of the IC50, conventionally taken in molar units. Higher therefore signals a low IC50. `C[C@H](C[C@@H](C)C(=O)N1c2ccccc2C[C@H]1C(=O)O)C(=O)O` [1-(4-carboxy-2R,4R-dimethylbutanoyl)-indoline-2S-carboxylic acid]: the pIC50 in experiment [4] is about 7.52.

For the compound `C[C@H](C[C@@H](CCc1ccccc1)C(=O)O)C(=O)N1c2ccccc2C[C@H]1C(=O)O` [1-(4-carboxy-2R-methyl-4R-phenethylbutanoyl)indoline-2S-carboxylic acid], the pIC50 in experiment [4] was about 8.30.

`C[C@H](CCC(=O)O)C(=O)N1c2ccccc2C[C@H]1C(=O)O` [1-(4-carboxy-2R-methylbutanoyl)-indoline-2S-carboxylic acid] showed a pIC50 in experiment [4] of about 7.40.

In turn, `O=C(O)CCCC(=O)N1c2ccccc2C[C@H]1C(=O)O` [1-(4-carboxybutanoyl)-indoline-2S-carboxylic acid] had a pIC50 in experiment [4] of about 6.52.

As to `C[C@H](C[C@@H](C)C(=O)N1c2ccccc2C[C@H]1C(=O)O)C(=O)OCOC(=O)C(C)(C)C` [1-[4-(pivaloyloxymethoxycarbonyl)-2R,4R-dimethylbutanoyl]-indoline-2S-carboxylic acid], the “inhibition” value in experiment [1] is on record as “inhibit the pressor response”.

For the origin of these results see patent US4479963A, “1-Carboxyalkanoylindoline-2-carboxylic acids” (Ciba-Geigy Corporation, priority 1982, dated 1984).
